Results reported in paper PMC8646516 (CPT: Pharmacometrics & Systems Pharmacology, 2021).
Read-outs that look alike come from different tables or passages of the source.

Tests used:
[1] = samples >20 h postdose, median (IQR)
[2] = cited from earlier work
[3] = tested on: hospitalized patients with COVID‐19; details: cited from earlier work
[4] = cited from earlier work; remark: listed apart in the source
[5] = imatinib N = 197 vs placebo N = 188

Structure (SMILES) | Observed total imatinib plasma concentration Ctrough ([1]; COVID-19 subset 1 (model building)) | Observed total imatinib plasma concentration Ctrough ([1]; COVID-19 subset 2 (validation set)) | Protein bound in blood [2] [%] | Premature treatment stop due to gastrointestinal (GI) toxicity ([3]; CounterCOVID) | Duration of invasive mechanical ventilation compared with placebo [3, 5] | Mortality compared with placebo [3, 5] | Drug excreted by renal excretion [4] [%] | Drug excreted via the feces [4] [%] | Excreted unchanged ([4]; of the excreted drug) [%] | Bioavailability ([4]; oral) | Metabolite AUC as % of the parent AUC ([4]; formed by CYP3A4) | Activity of the metabolite ([4]; relative to imatinib)
Cc1ccc(NC(=O)c2ccc(CN3CCN(C)CC3)cc2)cc1Nc1nccc(-c2cccnc2)n1 [imatinib] | 2156 (738–4179) µg/L | 1791 (928.4–3204) µg/L | > 95 | more imatinib treated patients stopped treatment prematurely | shorter | significantly lower | 13 | 68 | 25 | almost complete |  | 
Cc1ccc(NC(=O)c2ccc(CN3CCNCC3)cc2)cc1Nc1nccc(-c2cccnc2)n1 [N‐desmethyl imatinib] |  |  |  |  |  |  |  |  |  |  | ~ 10% | active
